ChEMBL document CHEMBL4699579, “A Peptidyl Inhibitor that Blocks Calcineurin-NFAT Interaction and Prevents Acute Lung Injury” (J Med Chem, 2020)
Active and inactive are the calls of the source. The rule behind the calls is not given here. Positions of bridges follow the written chain, without caps; N, C: chain ends. Non-standard residues stand in square brackets, D forms with d. Residues, ends and D or L forms follow the SMILES beside them. Chains are numbered I, II in the order given. *: point of attachment. 2Nal = N[C@@H](Cc1ccc2ccccc2c1)C(=O)O; Val(3-OH) = CC(C)(O)[C@H](N)C(=O)O; Tle = CC(C)(C)[C@H](N)C(=O)O; X1 = O=C(c1ccnc(Cl)c1Cl)*; AEEA = NCCOCCOCC(=O)O

Tests used:
[1] = Drug distribution in BALB/c mouse neutrophils at […], ip using compound labelled with cyanine-5 measured after 24 hrs by flow cytometry; format: ADME, organism-based, Neutrophil; details: in vivo, dose 2.4 mg/kg
[2] = Stability in simulated intestinal fluid at 5 uM incubated for 2 hrs by LC/MS/MS analysis
[3] = Drug concentration in BALB/c mouse muscle at 5 mg/kg, iv after 8 hrs by LC-MS/MS analysis; format: ADME, organism-based, Muscle tissue; details: in vivo
[4] = Clearance in C57BL/6 mouse assessed as clearance time at 5 mg/kg using TMR-labeled compound instilled into both nostrils by flow cytometry; format: ADME, organism-based; details: in vivo, inhaled_or_intranasal
[5] = Drug distribution in BALB/c mouse pancreas at 0.6 mg/kg, iv using compound labelled with cyanine-5 measured after 24 hrs by fluorescence based assay; format: ADME, organism-based; details: read-out: Drug uptake
[6] = Drug distribution in BALB/c mouse muscle at 0.6 mg/kg, iv using compound labelled with cyanine-5 measured after 24 hrs by fluorescence based assay; format: ADME, organism-based, Muscle tissue; details: in vivo
[7] = Drug distribution in BALB/c mouse kidney at 0.6 mg/kg, iv using compound labelled with cyanine-5 measured after 24 hrs by fluorescence based assay; format: ADME, organism-based; details: in vivo
[8] = Drug distribution in BALB/c mouse lung at […], sc using compound labelled with cyanine-5 measured after 24 hrs by fluorescence based assay; format: ADME, organism-based; details: dose 2.4 mg/kg, read-out: Drug uptake
[9] = Drug metabolism in BALB/c mouse plasma at 5 mg/kg, iv after 8 hrs by LC-MS/MS analysis; format: ADME, organism-based; details: in vivo
Macrophage = assay: Inhibition of calcineurin-NFATc3 interaction in mouse lung macrophages assessed as reduction in LPS-induced IL6 production at 1 uM pre-incubated 4 hrs before LPS stimulation for 8 hrs by ELISA relative to 10 uM CsA; format: tissue-based; details: time 12.0 hrs
[10] = Drug distribution in BALB/c mouse monocytes at […], sc using compound labelled with cyanine-5 measured after 24 hrs by flow cytometry; format: ADME, organism-based, Monocyte; details: in vivo, dose 2.4 mg/kg
Mus musculus [11] = assay: Anti-inflammatory activity in BALB/c mouse model of LPS-induced ALI assessed as reduction in LPS-induced lung wet-to-dry ratios at 5 mg/kg, iv pre-treated 4 hrs before LPS stimulation for 16 hrs; format: functional, organism-based; details: time 20.0 hrs
Mus musculus [12] = assay: Anti-inflammatory activity in BALB/c mouse model of LPS-induced ALI assessed as reduction in LPS-induced IL6 in BALF at 5 mg/kg, iv pre-treated 4 hrs before LPS stimulation for 16 hrs; format: functional, organism-based; details: time 20.0 hrs
[13] = Drug concentration in BALB/c mouse spleen at 5 mg/kg, iv after 8 hrs by LC-MS/MS analysis; format: ADME, organism-based; details: read-out: Drug uptake
[14] = Drug distribution in BALB/c mouse muscle at […], sc using compound labelled with cyanine-5 measured after 24 hrs by fluorescence based assay; format: ADME, organism-based, Muscle tissue; details: in vivo, dose 2.4 mg/kg
Mus musculus [15] = assay: Anti-inflammatory activity in BALB/c mouse model of LPS-induced ALI assessed as reduction in LPS-induced TNFalpha in lung at 5 mg/kg, iv pre-treated 4 hrs before LPS stimulation for 16 hrs; format: functional; details: time 20 hrs
[16] = Drug distribution in BALB/c mouse kidney at […], sc using compound labelled with cyanine-5 measured after 24 hrs by fluorescence based assay; format: ADME, organism-based; details: in vivo, dose 2.4 mg/kg
Homo sapiens = organism: Homo sapiens; assay: Inhibition of GST-tagged Calcineurin (unknown origin) assessed as reduction in phosphatase activity at 50 uM incubated for 30 mins using p-nitrophenyl phosphate substrate
[17] = Drug distribution in BALB/c mouse liver at 0.6 mg/kg, iv using compound labelled with cyanine-5 measured after 24 hrs by fluorescence based assay; format: ADME, organism-based; details: in vivo
[18] = Drug distribution in BALB/c mouse neutrophils at […], sc using compound labelled with cyanine-5 measured after 24 hrs by flow cytometry; format: ADME, organism-based, Neutrophil; details: in vivo, dose 2.4 mg/kg
[19] = Drug distribution in BALB/c mouse heart at 0.6 mg/kg, iv using compound labelled with cyanine-5 measured after 24 hrs by fluorescence based assay; format: ADME, organism-based; details: read-out: Drug uptake
[20] = Drug metabolism in BALB/c mouse spleen at 5 mg/kg, iv after 8 hrs by LC-MS/MS analysis; format: ADME, organism-based; details: in vivo
[21] = Stability in human HCT-116 cells spheroids assessed as compound degradation at 5 uM incubated for 24 hrs by MALDI-TOF-TOF mass spectrometry; format: ADME, cell-based; details: hct-116, 24 h
[22] = Drug distribution in BALB/c mouse liver at […], ip using compound labelled with cyanine-5 measured after 24 hrs by fluorescence based assay; format: ADME, organism-based; details: in vivo, dose 2.4 mg/kg
[23] = Drug metabolism in BALB/c mouse kidney at 5 mg/kg, iv after 8 hrs by LC-MS/MS analysis; format: ADME, organism-based; details: in vivo
[24] = Drug distribution in BALB/c mouse Non-T and B lymphocytes at 0.6 mg/kg, iv using compound labelled with cyanine-5 measured after 24 hrs by flow cytometry; format: ADME, organism-based, Lymphocyte; details: in vivo
[25] = Drug distribution in BALB/c mouse lymph nodes at […], sc using compound labelled with cyanine-5 measured after 24 hrs by fluorescence based assay; format: ADME, organism-based, Lymph node; details: dose 2.4 mg/kg, read-out: Drug uptake
[26] = Stability in mouse liver microsomes assessed as compound degradation at 100 uM after 1 hr in presence of NADPH by LC-MS/MS analysis; format: ADME, Microsome; details: read-out: Drug degradation
[27] = Toxicity in mouse lung macrophages cells assessed as reduction in cell viability up to 25 uM incubated for 72 hrs by MTT assay; format: tissue-based; details: macrophage
[28] = Drug distribution in BALB/c mouse Non-T and B lymphocytes at […], sc using compound labelled with cyanine-5 measured after 24 hrs by flow cytometry; format: ADME, organism-based, Lymphocyte; details: in vivo, dose 2.4 mg/kg
[29] = Drug metabolism in BALB/c mouse liver at 5 mg/kg, iv after 8 hrs by LC-MS/MS analysis; format: ADME, organism-based; details: in vivo
[30] = Drug distribution in BALB/c mouse monocytes at […], ip using compound labelled with cyanine-5 measured after 24 hrs by flow cytometry; format: ADME, organism-based, Monocyte; details: in vivo, dose 2.4 mg/kg
Mus musculus [31] = assay: Anti-inflammatory activity in BALB/c mouse model of LPS-induced ALI assessed as reduction in LPS-induced lung wet-to-dry ratios at 3 mg/kg dosed via intranasal instillation pre-treated 2 hrs before LPS stimulation for 6 hrs and measured at 24 hrs; format: functional, organism-based
Mus musculus [32] = assay: Anti-inflammatory activity in BALB/c mouse model of LPS-induced ALI assessed as reduction in LPS-induced BALF protein levels at 3 mg/kg dosed via intranasal instillation pre-treated 2 hrs before LPS stimulation for 6 hrs and measured at 24 hrs; format: functional, organism-based
Mus musculus [33] = assay: Anti-inflammatory activity in BALB/c mouse model of LPS-induced ALI assessed as reduction in LPS-induced TNFalpha in BALF at 3 mg/kg dosed via intranasal instillation pre-treated 2 hrs before LPS stimulation for 6 hrs and measured at 24 hrs; format: functional, organism-based
Mus musculus [34] = assay: Anti-inflammatory activity in BALB/c mouse model of LPS-induced ALI assessed as reduction in LPS-induced IL6 level in BALF at 0.3 to 3 mg/kg dosed via intranasal instillation pre-treated 2 hrs before LPS stimulation for 6 hrs; format: functional
[35] = Drug distribution in BALB/c mouse neutrophils at 0.6 mg/kg, iv using compound labelled with cyanine-5 measured after 24 hrs by flow cytometry; format: ADME, organism-based, Neutrophil; details: in vivo

Which Drug uptake [1] does the source give for `CC[C@H](C)[C@H](NC(=O)[C@@H](NC(=O)c1ccnc(Cl)c1Cl)C(C)(C)C)C(=O)N[C@H](C(=O)N[C@H](C(=O)N[C@H](C(=O)N[C@@H](CCC(N)=O)C(=O)N[C@@H](Cc1c[nH]cn1)C(=O)N[C@H](CC(C)C)C(=O)N[C@@H](CO)C(=O)NCCOCCOCC(=O)N[C@@H](CCCCNC(=O)CC[C@@H]1NC(=O)[C@@H](CCCNC(=N)N)NC(=O)[C@H](CCCNC(=N)N)NC(=O)[C@@H](CCCNC(=N)N)NC(=O)[C@H](CCCNC(=N)N)NC(=O)[C@H](Cc2ccc3ccccc3c2)NC(=O)[C@@H](Cc2ccccc2)NC1=O)C(N)=O)[C@@H](C)O)[C@@H](C)CC)C(C)(C)O` (I: X1-[Tle]I[Val(3-OH)]ITQH[dL]S[AEEA]K-NH2 / II: cyclo([2Nal]R[dR]R[dR]E[dF]); amide I:11-II:6) here?
Its Drug uptake is “Active”.

And the Stability [2]?
The Stability was “Stable”.

And the Drug uptake [3]?
Its Drug uptake is “Not Active”.

And the CL [4]?
Its CL is 16 h.

What about the concentration at 24 h [5] of the same molecule?
Its concentration at 24 h is greater than 50 nM.

What about the Drug uptake [6] of the same molecule?
Its Drug uptake is “Not Active”.

What about the Drug uptake [7] of the same molecule?
Its Drug uptake is “Active”.

And the concentration at 24 h [8]?
The concentration at 24 h was greater than 50 nM.

And the Drug metabolism [9]?
Its Drug metabolism is “Metabolite_Detected”.

What about the fold change (FC) (Macrophage) of the same molecule?
Its fold change (FC) is 10.

And the Drug uptake [10]?
The Drug uptake was “Active”.

And the Activity (Mus musculus [11])?
Its Activity is “Active”.

What about the Activity (Mus musculus [12]) of the same molecule?
Its Activity is “Active”.

What about the concentration at 8 h [13] of the same molecule?
Its concentration at 8 h is 15 nM.

And the Drug uptake [14]?
The Drug uptake was “Not Active”.

What about the inhibition in vivo at 5 mg/kg (Mus musculus [15]) of the same molecule?
The inhibition in vivo at 5 mg/kg was 100%.

What about the Drug uptake [16] of the same molecule?
The Drug uptake was “Active”.

And the inhibition (Homo sapiens)?
Its inhibition is “inactive”.

And the Drug uptake [17]?
The Drug uptake was “Active”.

What about the Drug uptake [18] of the same molecule?
The Drug uptake was “Active”.

And the concentration at 24 h [19]?
Its concentration at 24 h is greater than 50 nM.

And the Drug metabolism [20]?
Its Drug metabolism is “Metabolite_Detected”.

What about the Stabilty [21] of the same molecule?
Its Stabilty is “Stable”.

What about the Drug uptake [22] of the same molecule?
Its Drug uptake is “Active”.

What about the Drug metabolism [23] of the same molecule?
The Drug metabolism was “Metabolite_Detected”.

And the Drug uptake [24]?
The Drug uptake was “Active”.

And the concentration at 24 h [25]?
The concentration at 24 h was greater than 50 nM.

What about the metabolised at 1 h, 100 µM [26] of the same molecule?
The metabolised at 1 h, 100 µM was no more than 25%.

And the Activity [27]?
Its Activity is “Non-Toxic”.

What about the Drug uptake [28] of the same molecule?
Its Drug uptake is “Active”.

And the Drug metabolism [29]?
The Drug metabolism was “Metabolite_Detected”.

And the Drug uptake [30]?
Its Drug uptake is “Active”.

And the Activity (Mus musculus [31])?
Its Activity is “inactive”.

What about the Activity (Mus musculus [32]) of the same molecule?
Its Activity is “inactive”.

And the Activity (Mus musculus [33])?
The Activity was “inactive”.

And the Activity (Mus musculus [34]; dose mg/kg 0.3-3, time 8.0 hrs)?
The Activity was “Dose-dependent effect”.

And the minimal effective dose (Mus musculus [34]; dose mg/kg 0.3-3, time 8 hrs, read-out: MED)?
Its minimal effective dose is 1 mg/kg.

What about the Drug uptake [35] of the same molecule?
The Drug uptake was “Active”.
